Results: article PMC8869728 (Biomedicines, 2022)
pIC50: −log10 of the molar value. Like-named read-outs stand apart in the source and are kept apart here.

Experiments:
AChE [1] = conditions: read-out: IC50 of AChE inhibitory activities; cited from earlier work
AChE [2] = test system: AChE; set-up: method as in PMID 32118214; conditions: read-out: IC50 of AChE inhibitory activity; cited from earlier work
[3] = test system: scopolamine-treated amnesiac ICR mice; experiment: Passive avoidance test in scopolamine-induced amnesiac ICR mice; conditions: scopolamine 1 mg/kg i.p.
Description: The 6-week-old male ICR mice were from the Laboratory Animal Center, College of Medicine, National Taiwan University (Taipei, Taiwan). The Prolab® RMH2500 normal diets (LabDiet Co., St. Louis, MO, USA) and water were free access during the animal experiments. After one week of acclimation, the VT-95EE or VT-95EE-EA pre-treatments were used to evaluate preventive functions as follows. […] At the first stage, the extract (VT-95EE and VT-95EE-EA)-administered group, ICR mice were treated from day 1 to day 11 by a single oral administration daily by gavage. […] Except for the blank, each mouse in all groups was intraperitoneally injected with scopolamine (1 mg/kg) 30 min after the oral administration. Each mouse in the blank group was injected with an equal volume of PBS instead of scopolamine. Each mouse received a learning and memory evaluation by a passive avoidance test 30 min after scopolamine injection at day 13 to day 14. All mice were sacrificed in the end of animal experiments at day 15, and the brain tissue of mouse in each group was isolated, weighted, and stored at −80°C for further uses.
The pre-treatment was used to evaluate preventive functions. […] At the first stage, the purified compound (vitisin A and vitisin B) administered group, ICR mice were treated from day 1 to day 9 by a single oral administration daily by gavage. […] Except for the blank, each mouse in all groups was intraperitoneally injected with scopolamine (1 mg/kg) 30 min after the oral administration. Each mouse in the blank group was injected with an equal volume of PBS instead of scoploamine. Each mouse received a learning and memory evaluation by a passive avoidance test 30 min after scopolamine injection at day 11 to day 12. All mice were sacrificed in the end of animal experiments at day 13, and the brain tissue of mice in each group was isolated, weighted, and stored at −80 °C for further uses.
The apparatus for passive avoidance test is a shuttle chamber composed of a bright box and a dark box; the dark box could be closed by a manual guillotine door (AccuScan Instruments Inc, Columbus, OH, USA). The dark box contained a wired metal floor, through which the electric foot shocks were automatically delivered in the acquisition trial. The first day was the acquisition trial, and the second day was the retention trial. For the acquisition trial, each mouse was placed around the shuttle chamber to acclimatize to the environment; 30 min later, each mouse was transferred to the bright box to record the time in the bright box (the step-through latency, s).

SH-SY5Y cells = experiment: Neuroprotective activities against MGO-induced SH-SY5Y cell deaths (SRB cell viability); assay type: cell-based, human; conditions: then 500 μM MGO 24 h
Description: The SH-SY5Y cells were cultured at 37 °C in the mixed medium of EMEM/F12 (1:1) and 10% FBS in the humidified atmosphere and 5% CO2. […] The treated SH-SY5Y cells were washed with PBS, and then the media without (the blank) or with 500 μM MGO (the control group and sample groups) were added for additional 24-h incubation at 37 °C. The cell viability was assayed by the SRB dyes as follows. The MGO-treated SH-SY5Y cells were washed twice with PBS, fixed by 10% trichloroacetic acid, and then stained with 0.2% SRB (dissolved in 1% acetic acid) for 30 min. The unbound dyes were removed by washing the stained cells with 1% acetic acid. The bound dyes in alive cells were extracted by 500 µL of 10 mM Tris-HCl buffer (pH 7.9). The absorbance at 540 nm was measured using an ELISA reader (TECAN, Männedorf, Switzerland).

recombinant human AChE = molecular target: T1, recombinant human AChE (Homo sapiens, UniProt P22303); experiment: biochemical; conditions: calculated from linear equation of three concentrations; read-out: IC50 of AChE inhibition
T1 construct: purchased R&D Systems Inc. (Minneapolis, MN)
Excerpt: The synthetic acetylthiocholine iodide was used as substrates for in vitro AChE activity assays. […] The released thiocholine was reacted with DTNB to generate yellowish 5-thio-2-nitrobenzoate. […] The AChE inhibitory activities (%) were as following: [(A405blank − A405sample)/(A405blank)] × 100%.

recombinant human MAO-B = molecular target: T2, recombinant human MAO-B (Homo sapiens, UniProt P27338); experiment: MAO-B inhibitory activities in vitro (kynuramine fluorescence); assay type: biochemical; conditions: calculated from linear equation of three concentrations; read-out: IC50 of MAO-B inhibition
T2 construct: purchased Sigma Chemical Co. (St. Louis, MO, USA)
T2 sequence (P27338 1-520): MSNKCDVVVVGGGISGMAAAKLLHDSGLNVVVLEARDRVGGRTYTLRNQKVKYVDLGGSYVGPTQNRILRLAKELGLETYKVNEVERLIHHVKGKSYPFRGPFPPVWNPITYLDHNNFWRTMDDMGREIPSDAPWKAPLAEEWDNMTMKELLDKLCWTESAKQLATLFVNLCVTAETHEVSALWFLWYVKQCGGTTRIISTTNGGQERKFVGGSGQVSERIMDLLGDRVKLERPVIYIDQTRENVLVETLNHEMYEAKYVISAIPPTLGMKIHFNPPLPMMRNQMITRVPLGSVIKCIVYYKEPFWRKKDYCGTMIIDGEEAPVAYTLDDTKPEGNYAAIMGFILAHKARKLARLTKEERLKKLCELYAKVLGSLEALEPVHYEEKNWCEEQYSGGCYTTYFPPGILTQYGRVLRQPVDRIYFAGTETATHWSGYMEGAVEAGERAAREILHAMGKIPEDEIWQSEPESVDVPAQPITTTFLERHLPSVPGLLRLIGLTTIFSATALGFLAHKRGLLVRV
Description: The kynuramine was used as the MAO-B substrate to generate a fluorescent product, 4-hydroxyquinoline, which was used to screen MAO-B inhibitory activity assays. […] The MAO-B inhibition (%) was calculated as the following: [(Fblank − Fsample)/(Fblank)] × 100%. The IC50 of MAO-B activity was calculated from each linear equation from three used concentrations for MAO-B inhibitions.

[4] = test system: malondialdehyde (MDA) levels; experiment: MDA levels in mouse brain tissue extracts (TBA); assay type: in vivo; conditions: vitisin A or B 40 mg/kg oral; donepezil 5 mg/kg; scopolamine-treated mice
Description: (§1) The isolated whole brain tissue was weighted, and powdered in liquid nitrogen using a mortar and pestle. The proteins in the tissue powders were suspended and extracted by 1 mL, one-fold-diluted PBS. […] The protein contents in tissue extracts were determined by the BCA^TM protein assay kit (Thermo Fisher Scientific Inc.), and BSA was used to plot the standard curve. The AChE activity in the brain extracts was determined following the previous report. […] The malondialdehyde (MDA) levels in the brain extracts was determined using acidic TBA. The 320 μL of 0.5% TBA in 10% trichloroacetic acid was premixed with 80 μL of 5-fold diluted tissue extracts, and then heated at boiling water for 20 min, and then centrifuged at 10,000 rpm, 4 °C for 30 min. […] For determining protein expressions of BDNF and its receptor, TrkB, among brain extracts of the treated mice, the immune stains were performed onto polyvinylidene difluoride (PVDF) membranes (Millipore, Bedford, MA, USA). […] The western chemiluminescent HRP substrate kit (WBKL S0050, Millipore) was used to stain the target protein expressions, which the image system [Syngene GeneGnome5 imaging system (Cambridge, UK)] was used to quantify the image levels of target protein in the immune blots.

[5] = test system: brain-derived neurotrophic factor (BDNF); experiment: BDNF protein expression in mouse brain tissue extracts (immune blot); assay type: in vivo; conditions: vitisin A or B 40 mg/kg oral; donepezil 5 mg/kg; scopolamine-treated mice
Description: as §1

AChE [6] = molecular target: T3, AChE (Mus musculus, UniProt P21836); assay type: in vivo; conditions: vitisin A or B 40 mg/kg oral; donepezil 5 mg/kg; scopolamine-treated mice
T3 construct: The isolated whole brain tissue was weighted, and powdered in liquid nitrogen using a mortar and pestle; from tissue; host or cells: whole brain of ICR mice (PBS extract, supernatant)
T3 sequence (P21836 32-614): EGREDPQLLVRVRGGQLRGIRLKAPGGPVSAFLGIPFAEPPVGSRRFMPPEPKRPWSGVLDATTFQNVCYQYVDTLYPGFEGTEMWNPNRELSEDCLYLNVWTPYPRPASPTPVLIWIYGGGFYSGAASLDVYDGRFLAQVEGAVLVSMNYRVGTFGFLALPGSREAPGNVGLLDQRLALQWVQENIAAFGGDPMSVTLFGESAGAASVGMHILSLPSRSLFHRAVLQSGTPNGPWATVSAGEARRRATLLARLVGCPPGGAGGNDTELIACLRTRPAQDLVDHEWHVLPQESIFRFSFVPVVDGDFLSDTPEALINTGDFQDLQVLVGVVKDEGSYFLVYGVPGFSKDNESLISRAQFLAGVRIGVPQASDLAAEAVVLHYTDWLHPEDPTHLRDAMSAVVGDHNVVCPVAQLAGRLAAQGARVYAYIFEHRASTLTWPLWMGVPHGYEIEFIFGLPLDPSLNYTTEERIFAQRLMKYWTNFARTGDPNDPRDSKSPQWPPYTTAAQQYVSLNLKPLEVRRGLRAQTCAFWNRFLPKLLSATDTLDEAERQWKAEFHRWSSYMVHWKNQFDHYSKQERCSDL
Description: as §1

[7] = test system: C57BL/6 mice treated with high fat diets; set-up: method as in PMID 26448517; conditions: oral administration once a day at dose of 25 mg/kg with high fat diets; cited from earlier work
[8] = test system: tropomyosin receptor kinase B (TrkB); experiment: TrkB protein expression in mouse brain tissue extracts (immune blot); assay type: in vivo; conditions: vitisin A or B 40 mg/kg oral; donepezil 5 mg/kg; scopolamine-treated mice
Description: as §1

[9] = test system: endothelium-intact thoracic aortic rings of SD rats; set-up: method as in PMID 22762395; conditions: by increasing NO releases; cited from earlier work
[10] = test system: spontaneously hypertensive rats; set-up: method as in PMID 22762395; conditions: at the 8-h after a single oral dose of 10 mg/kg; cited from earlier work
[11] = compound study: vitisin A or vitisin B 40 mg/kg oral daily day 1-13, donepezil 5 mg/kg day 10-13
[12] = pretreatment 2.5, 5, 10, and 20 μM for 24 h

T1 sequence (P22303 32-614): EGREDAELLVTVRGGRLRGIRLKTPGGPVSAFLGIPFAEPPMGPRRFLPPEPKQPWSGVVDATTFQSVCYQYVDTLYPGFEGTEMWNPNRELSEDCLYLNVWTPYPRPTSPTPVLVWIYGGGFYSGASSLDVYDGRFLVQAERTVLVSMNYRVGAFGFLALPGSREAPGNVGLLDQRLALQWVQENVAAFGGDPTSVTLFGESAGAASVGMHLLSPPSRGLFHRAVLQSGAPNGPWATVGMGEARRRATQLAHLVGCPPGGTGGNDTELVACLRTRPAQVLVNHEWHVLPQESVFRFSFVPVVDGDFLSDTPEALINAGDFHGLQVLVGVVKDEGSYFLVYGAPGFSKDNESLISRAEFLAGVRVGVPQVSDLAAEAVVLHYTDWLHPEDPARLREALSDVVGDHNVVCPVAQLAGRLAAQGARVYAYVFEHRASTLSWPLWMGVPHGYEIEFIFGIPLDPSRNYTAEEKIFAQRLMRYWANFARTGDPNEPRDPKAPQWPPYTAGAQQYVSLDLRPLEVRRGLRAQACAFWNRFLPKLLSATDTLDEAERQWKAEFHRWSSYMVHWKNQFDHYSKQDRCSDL

Compound | pIC50 (AChE [1]) | step-through latency in the retention trial compared to the control [3, 11] | MGO-treated cell viability compared to the control (SH-SY5Y cells; [12]) | pIC50 (recombinant human AChE) | pIC50 (recombinant human MAO-B) | also measured
O=C(OC[C@H]1O[C@@H](OC(=O)c2cc(O)c(O)c(O)c2)[C@H](OC(=O)c2cc(O)c(O)c(O)c2)[C@@H](OC(=O)c2cc(O)c(O)c(O)c2)[C@@H]1O)c1cc(O)c(O)c(O)c1 [1,2,3,6-tetra-O-galloyl-β-D-glucopyranoside] | 4.07 | – | – | – | – | –
COc1cc(/C=C/C(=O)CC(=O)/C=C/c2ccc(O)c(O)c2)ccc1O [demethylcurcumin] | – | – | – | – | – | pIC50 (AChE [2]): 4.17
COc1cc2c(cc1OC)C(=O)C(CC1CCN(Cc3ccccc3)CC1)C2 (stereo not drawn) [donepezil, reference compound] | – | significant longer time | – | – | – | step-through latency in the retention trial compared to the control ([3]; extract study: VT-95EE or VT-95EE-EA 200 and 400 mg/kg oral daily day 1-15, donepezil 5 mg/kg day 12-15): significant longer time
Oc1ccc([C@H]2c3c(O)cc(O)cc3[C@H]3c4c(cc(O)cc4[C@@H]2[C@H]2c4cc(O)cc5c4[C@H](c4cc(O)cc(O)c4[C@@H]2c2ccc(O)cc2)[C@@H](c2ccc(O)cc2)O5)O[C@@H]3c2ccc(O)cc2)cc1 [hopeaphenol, (+)-hopeaphenol] | – | – | no significant difference | 5.09 | 4.05 | –
Oc1ccc(/C=C/c2cc(O)cc(O)c2)cc1 [resveratrol, reference compound] | – | – | no significant difference | – | 4.38 | –
O=C(OC1O[C@@H]2COC(=O)c3cc(O)c(O)c(O)c3-c3c(cc(O)c(O)c3O)C(=O)O[C@H]2[C@H](OC(=O)c2cc(O)c(O)c(O)c2)[C@H]1OC(=O)c1cc(O)c(O)c(O)c1)c1cc(O)c(O)c(O)c1 (stereo partly drawn) [tellimagrandin II] | 4.73 | – | – | – | – | –
O=C(O[C@H]1[C@@H]2OC(=O)c3cc(O)c(O)c(O)c3-c3c(cc(O)c(O)c3O)C(=O)OC[C@H]2OC(O)[C@@H]1OC(=O)c1cc(O)c(O)c(O)c1)c1cc(O)c(O)c(O)c1 (stereo partly drawn) [tellimagrandin I] | 4.74 | – | – | – | – | –
Oc1ccc([C@H]2c3c(O)cc(O)cc3[C@H]3c4c(cc(O)cc4[C@@H]2c2cc(/C=C/c4cc(O)cc5c4[C@H](c4cc(O)cc(O)c4)[C@@H](c4ccc(O)cc4)O5)ccc2O)O[C@@H]3c2ccc(O)cc2)cc1 [vitisin A, (+)-vitisin A] | – | significant longer time | significantly to elevate MGO-treated cell viability | 5.89 | 5.31 | MDA levels in brain tissue extracts compared to the control [4]: lower increase in AChE and MDA levels; BDNF protein expression in brain tissue extracts [5]: recover both protein expressions of the reduced BDNF and TrkB; AChE activity in brain tissue extracts compared to the control (AChE [6]): lower increase in AChE and MDA levels; weight gains [7]: reduce weight gains; TrkB protein expression in brain tissue extracts [8]: recover both protein expressions of the reduced BDNF and TrkB; effect on phenylephrine-induced tension [9]: vasodilating effects; greatest reduction in diastolic blood pressure [10]: 25.7 mmHg; greatest reduction in systolic blood pressure [10]: 23.6 mmHg
Oc1ccc([C@H]2Oc3cc(O)cc(/C=C/c4ccc5c(c4)[C@@H](c4cc(O)cc6c4[C@H](c4cc(O)cc(O)c4)[C@@H](c4ccc(O)cc4)O6)[C@H](c4ccc(O)cc4)O5)c3[C@@H]2c2cc(O)cc(O)c2)cc1 [vitisin B, (−)-vitisin B] | – | no significant difference | – | 5.88 | 5.97 | MDA levels in brain tissue extracts compared to the control [4]: no effect on reduction of MDA level; MGO-treated cell viability compared to the control (SH-SY5Y cells; pretreatment 5, 10, and 20 μM for 24 h): significantly to elevate MGO-treated cell viability; BDNF protein expression in brain tissue extracts [5]: recover the reduced BDNF protein expressions; AChE activity in brain tissue extracts compared to the control (AChE [6]): lower increased AChE activities
